Activity calls are given as the source filed them. The rule behind the calls is not given here.

Here are results for 14 molecules from ChEMBL document CHEMBL3046456, “Anti-angiogenic/proliferative behavior of a 4-aryl-4H-chromene on blood vessels endothelial cells: A possible evidence on dual anti-tumor activity” (Med Chem Res, 2011).

Series [1] has as its system HUVEC. Put plainly: Cytotoxicity against Homo sapiens (human) HUVEC cells up to 40 ug/ml after 48 hr by trypan blue assay. In kind it is cell-based.
Series [2] addresses 72 kDa type IV collagenase (Homo sapiens) (UniProt P08253). The series is described as follows: Inhibition of MMP2 (unknown origin) at 37.32 uM after 16 hr by gelatin zymographic analysis.
Series [3] has as its system HUVEC. The series is described as follows: Antiangiogenic activity against Homo sapiens (human) HUVEC cells assessed as inhibition of capillary tube formation after 3 days by microscopic analysis. The format is functional, cell-based.
Series [4] concerns the target Matrix metalloproteinase-9 (Homo sapiens) (UniProt P14780). Put plainly: Inhibition of MMP9 (unknown origin) after 16 hr by gelatin zymographic analysis.
For series [5], the system named is HUVEC. The series is described as follows: Cytotoxicity against Homo sapiens (human) HUVEC cells up to 40 ug/ml after 48 hr by LDH assay. The format is cell-based.
The subject of series [6] is HUVEC. The series is described as follows: Antiproliferative activity against Homo sapiens (human) HUVEC cells after 3 days by cell counting analysis. The format is functional, cell-based.
The subject of series [7] is HUVEC. Put plainly: Antiproliferative activity against Homo sapiens (human) HUVEC cells at <10 ug/ml after 3 days by cell counting analysis. The format is functional, cell-based.
Series [8] relates to HUVEC. The series is described as follows: Antiproliferative activity against Homo sapiens (human) HUVEC cells at 1 ug/ml after 3 days by cell counting analysis. In kind it is functional, cell-based.
The target of series [9] is Matrix metalloproteinase-9 (Homo sapiens) (UniProt P14780). The series is described as follows: Inhibition of MMP9 (unknown origin) at 24.88 uM after 16 hr by gelatin zymographic analysis.
Matrix metalloproteinase-9 (Homo sapiens), sequence (P14780 whole entry): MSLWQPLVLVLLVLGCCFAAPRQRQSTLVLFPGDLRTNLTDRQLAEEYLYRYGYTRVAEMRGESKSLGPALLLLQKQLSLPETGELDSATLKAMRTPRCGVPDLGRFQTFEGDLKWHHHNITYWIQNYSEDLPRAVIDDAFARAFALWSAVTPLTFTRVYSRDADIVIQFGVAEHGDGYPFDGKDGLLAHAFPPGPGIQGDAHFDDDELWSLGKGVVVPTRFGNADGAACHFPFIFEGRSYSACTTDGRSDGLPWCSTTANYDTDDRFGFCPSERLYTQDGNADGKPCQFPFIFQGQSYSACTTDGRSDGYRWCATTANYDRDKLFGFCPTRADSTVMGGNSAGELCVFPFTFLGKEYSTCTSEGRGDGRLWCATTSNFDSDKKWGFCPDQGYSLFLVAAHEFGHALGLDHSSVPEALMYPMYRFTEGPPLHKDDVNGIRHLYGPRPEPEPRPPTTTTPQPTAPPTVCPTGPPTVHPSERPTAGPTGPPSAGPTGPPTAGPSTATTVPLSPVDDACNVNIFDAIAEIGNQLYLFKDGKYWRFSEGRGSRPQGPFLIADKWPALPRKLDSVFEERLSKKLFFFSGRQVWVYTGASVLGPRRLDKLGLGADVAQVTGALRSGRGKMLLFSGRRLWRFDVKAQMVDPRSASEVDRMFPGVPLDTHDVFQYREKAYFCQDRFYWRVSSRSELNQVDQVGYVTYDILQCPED
Series [10] deals with HUVEC. The series is described as follows: Antiangiogenic activity against Homo sapiens (human) HUVEC cells assessed as inhibition of capillary tube formation at 1 ug/ml after 3 days by microscopic analysis. The format is functional, cell-based.
The test system of series [11] is HUVEC. The series is described as follows: Antiproliferative activity against Homo sapiens (human) HUVEC cells at 3.11 to 124 uM after 3 days by cell counting analysis. The format is functional, cell-based.
Series [12] concerns HUVEC. Put plainly: Cytotoxicity against Homo sapiens (human) HUVEC cells after 48 hr by trypan blue assay. The format is cell-based.
Series [13] deals with HUVEC. The series is described as follows: Cytotoxicity against Homo sapiens (human) HUVEC cells after 48 hr by LDH assay. In kind it is cell-based.

72 kDa type IV collagenase (Homo sapiens), sequence (P08253 110-660 limits assumed): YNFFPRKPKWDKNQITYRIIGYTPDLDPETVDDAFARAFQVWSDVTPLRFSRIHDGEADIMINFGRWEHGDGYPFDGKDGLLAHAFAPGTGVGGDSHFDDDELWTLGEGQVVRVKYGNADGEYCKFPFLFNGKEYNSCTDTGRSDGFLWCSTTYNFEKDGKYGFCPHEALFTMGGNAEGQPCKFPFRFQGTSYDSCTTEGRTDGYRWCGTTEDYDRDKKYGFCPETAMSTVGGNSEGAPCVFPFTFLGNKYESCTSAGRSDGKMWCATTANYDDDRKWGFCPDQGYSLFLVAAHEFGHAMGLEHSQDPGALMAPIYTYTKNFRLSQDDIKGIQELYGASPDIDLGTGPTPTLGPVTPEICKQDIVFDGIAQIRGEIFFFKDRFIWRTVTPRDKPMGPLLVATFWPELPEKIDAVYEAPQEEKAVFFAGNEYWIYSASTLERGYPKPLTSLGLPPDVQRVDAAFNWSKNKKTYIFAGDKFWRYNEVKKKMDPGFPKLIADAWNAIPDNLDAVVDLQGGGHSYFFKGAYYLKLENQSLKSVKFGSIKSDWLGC

Regarding `COc1ccccc1C1C(C#N)=C(N)Oc2cc(N(C)C)ccc21` (centres undefined), the Activity result with HUVEC [1] was “Non-toxic”; with HUVEC [5], “Non-toxic”; in the series with HUVEC [6] it was “Dose-dependent effect”. Moreover, the inhibition entry (in series [2]; in series [9]; with HUVEC [10]) was “Active” each time. The inhibition result (in the series on HUVEC [3]; in series [4]) was “Dose-dependent effect” in each case. Further, the result with HUVEC [7] and in the series on HUVEC [8] was Active.
Consider `CN(C)c1ccc2c(c1)OC(N)=C(C#N)C2c1cccc(C(F)(F)F)c1` (centres undefined), for which, in the series with HUVEC [11], the outcome was inactive. Also, the Activity result with HUVEC [12] and in the series on HUVEC [13] was “Dose-dependent effect” in each case.
As for `COc1ccc2c(c1)OC/C(=C\c1ccc(OC)c(OC)c1)C2=O`, the result in the series on HUVEC [11] was inactive. The Activity entry in the series on HUVEC [12] and in the series on HUVEC [13] was “Dose-dependent effect” in each case.
In the case of `COc1ccc2c(c1)OC/C(=C\c1cc(OC)c(O)c(OC)c1)C2=O`, in the series on HUVEC [11], the outcome was inactive. The Activity entry with HUVEC [12] and in the series on HUVEC [13] was “Dose-dependent effect” each time.
As for `COc1ccc2c(c1)OC/C(=C\c1ccc(Cl)cc1)C2=O`, the result with HUVEC [11] was inactive. For the same molecule, the Activity result in the series with HUVEC [12] and with HUVEC [13] was “Dose-dependent effect” throughout.
`COc1ccc2c(c1)OC/C(=C\c1ccc(O)c(O)c1)C2=O`: in the series with HUVEC [11], the result was inactive. For the same molecule, the Activity entry in the series with HUVEC [12] and with HUVEC [13] was “Dose-dependent effect” in each case.
As for `COc1ccc2c(c1)OC/C(=C\c1ccc(F)cc1)C2=O`, in the series on HUVEC [11], the result was inactive. The Activity result in the series with HUVEC [12] and with HUVEC [13] was “Dose-dependent effect” each time.
Turning to `CN(C)c1ccc2c(c1)OC(N)=C(C#N)C2c1cccc([N+](=O)[O-])c1` (centres undefined), the outcome in the series with HUVEC [11] was inactive. For the same molecule, the Activity entry in the series with HUVEC [12] and in the series on HUVEC [13] was “Dose-dependent effect” throughout.
For the molecule `COc1ccc2c(c1)OC/C(=C\c1ccc(O)cc1)C2=O`, the outcome with HUVEC [11] was inactive. The Activity result with HUVEC [12] and in the series with HUVEC [13] was “Dose-dependent effect” in each case.
Consider `CCCOc1ccc2c(c1)OC/C(=C\c1ccc(O)c(O)c1)C2=O`, for which, in the series on HUVEC [11], the outcome was inactive. Moreover, the Activity entry in the series with HUVEC [12] and with HUVEC [13] was “Dose-dependent effect” each time.
`COc1ccc2c(c1)OC/C(=C\c1ccc(C(F)(F)F)cc1)C2=O`: the outcome in the series with HUVEC [11] was inactive. The Activity entry with HUVEC [12] and with HUVEC [13] was “Dose-dependent effect” in each case.
On to `COc1ccc2c(c1)OC/C(=C\c1ccc(Cl)cc1Cl)C2=O`, for which, in the series on HUVEC [11], the outcome was inactive. Moreover, the Activity result in the series on HUVEC [12] and in the series with HUVEC [13] was “Dose-dependent effect” each time.
Regarding `COc1ccc(/C=C2\COc3cc(OC)ccc3C2=O)cc1`, the outcome in the series with HUVEC [11] was inactive. The Activity entry with HUVEC [12] and in the series with HUVEC [13] was “Dose-dependent effect” throughout.
In the case of `COc1ccc2c(c1)OC/C(=C\c1ccccc1OC)C2=O`, the result with HUVEC [11] was inactive. The Activity entry in the series on HUVEC [12] and in the series on HUVEC [13] was “Dose-dependent effect” each time.
